{"source": "paper PMC7525011", "about": "“Mycobacterium tuberculosis Calcium Pump CtpF Modulates the Autophagosome in an mTOR-Dependent Manner” (Frontiers in Cellular and Infection Microbiology, 2020)", "target": "CtpF (Mycobacterium tuberculosis, UniProt P9WPS9)", "sequence (P9WPS9 whole entry)": "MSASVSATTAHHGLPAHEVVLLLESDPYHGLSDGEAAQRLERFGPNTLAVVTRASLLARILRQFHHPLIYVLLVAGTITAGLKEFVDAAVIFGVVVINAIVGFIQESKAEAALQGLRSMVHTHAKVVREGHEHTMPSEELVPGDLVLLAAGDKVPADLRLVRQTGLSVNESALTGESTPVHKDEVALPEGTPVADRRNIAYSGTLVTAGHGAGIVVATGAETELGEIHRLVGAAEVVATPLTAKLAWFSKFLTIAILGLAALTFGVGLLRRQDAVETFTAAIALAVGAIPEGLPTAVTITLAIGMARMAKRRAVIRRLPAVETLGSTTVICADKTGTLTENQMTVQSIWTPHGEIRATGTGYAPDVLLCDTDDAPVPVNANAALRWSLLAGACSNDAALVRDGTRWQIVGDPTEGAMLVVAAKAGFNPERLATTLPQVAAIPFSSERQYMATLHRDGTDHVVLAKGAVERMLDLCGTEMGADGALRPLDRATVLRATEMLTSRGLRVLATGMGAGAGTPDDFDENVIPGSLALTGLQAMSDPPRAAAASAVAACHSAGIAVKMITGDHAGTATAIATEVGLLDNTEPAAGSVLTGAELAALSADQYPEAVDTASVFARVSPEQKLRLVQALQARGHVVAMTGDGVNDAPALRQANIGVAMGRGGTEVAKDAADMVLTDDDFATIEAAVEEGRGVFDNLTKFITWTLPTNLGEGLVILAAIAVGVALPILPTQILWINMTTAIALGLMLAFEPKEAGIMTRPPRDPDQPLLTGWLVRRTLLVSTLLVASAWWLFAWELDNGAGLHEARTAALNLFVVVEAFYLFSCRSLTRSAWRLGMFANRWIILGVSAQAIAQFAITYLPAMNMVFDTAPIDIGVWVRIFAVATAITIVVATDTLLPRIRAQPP", "details": "with Ca2+ or Mg2+; 1 mM ATP; 60 mM Tris pH 7.4, 100 mM KCl; described as competitive inhibitor"}
{"compound": "[O]=[V]([OH])([OH])[OH]", "note": "[sodium orthovanadate]", "values": [{"measurement": "complete inhibition of Pi release", "value": "sodium orthovanadate, a competitive inhibitor of ATPase activity was used in the reaction"}]}
